Values of other authors in US20100121052A1, “Novel compounds for treating proliferative diseases” (priority 2008, published 2010).

Test system: prostate cancer cell lines
Conditions: background statement

SMILES: CC(=O)O[C@@H]1[C@@H](OC(C)=O)[C@@H](O)[C@H](Oc2c(-c3ccc(O)cc3)oc3cc(O)cc(O)c3c2=O)O[C@H]1C [SL0101]
- inhibition of proliferation of multiple prostate cancer cell lines: inhibit the proliferation
